What was measured:
Assay type in all cases: in vivo, male DBA/1OlaHsd mice
[1] = tested on: semi-established type II collagen arthritis; assay: 35 day mouse semi-established type II collagen arthritis: body weight, disease incidence, clinical arthritis scores and AUC; conditions: for Reduction of clinical arthritis scores expressed as area under the curve (AUC): days 18-34; for Reduction of clinical arthritis scores expressed as area under the curve (AUC) / Daily clinical arthritis scores: vs vehicle controls
Method: Mouse type II collagen arthritis is an art-recognized animal model for rheumatoid arthritis in humans (Bendele, 2001). […] Mice were terminated on day 34. […] Evaluation of serum anti-type II collagen antibody levels were also performed (groups 1-3, 6 and 8 only). All animals survived to study termination. • 1. […] Mice were anesthetized with Isoflurane and given 150 μl of Bovine Type II collagen in Freund's complete adjuvant injections (Sigma) containing bovine type II collagen (Elastin Products, Owensville, Mo.) (2 mg/ml) at the base of the tail (D0 and day 21). • 3. Mice were randomized by body weight into treatment groups on study day 18. • 4. MTX was provided by Bolder BioPATH, Inc. as a 1 mg/ml stock solution purchased from MWI and was prepared as a 0.05 mg/ml solution in 1% CMC for dosing at 10 ml/kg. • 5. All dose solutions were prepared to deliver at 10 ml/kg (0.3 ml/30 g) mouse. • 6. Treatment is initiated on study day 18 and continued once daily, every day (po, qd) according to Table 1. [table] • 7. During the period of treatment, clinical scores were given for each of the paws (right front, left front, right rear, left rear) according to Table 2. [table] • 8. On days 21-35, onset of arthritis occurred. Mice were weighed on arthritis days 18, 20, 22, 24, 26, 28, 30, 32, and prior to tissue collection on day 34 (final day). • 9. At necropsy, animals from all groups were bled via cardiac puncture for serum and terminated via cervical dislocation. Fore paws, hind paws and knees were removed and placed in 10% NBF. Whole blood was allowed to clot at room temperature for approximately 2 hours before being spun at 13,000 rpm for 8 minutes. • 10. Processing of Joints: Following 1-2 days in fixative and then 4-5 days in decalcifier, the joints were processed, embedded, sectioned and stained with toluidine blue and H&E (2 slides per animal). Only fore and hind paws and knees were processed initially (6 joints/mouse). • 11. Morphologic Pathology Methods: […] Hind paws, fore paws, and knees were embedded and sectioned in the frontal plane. Six joints from each animal were processed for histopathology elevation. • 12. Tissue Processing and Evaluation: • a. place joints in decalcifier, • b. trim joints, wash, process tissues, • c. embed joints, • d. section tissues, stain tissues, • e. histopathologic evaluation, and • f. data processing, QC, prepare graphs and report. Histopathologic Scoring Methods for Mouse Joints with Type II Collagen Arthritis Clinical data for paw scores (means for animal) were analyzed by determining the area under the dosing curve (AUC) for study days 18-34. For calculation of AUC, the daily mean scores for each mouse were entered into Microsoft Excel and the area between the treatment days after the onset of disease to the final day was computed. Means for each group were determined and the percent inhibition from arthritis controls was calculated by comparing values for treated and normal animals. […] Percent inhibition of clinical parameters and AUC is calculated using the following formula: % Inhibition=[…], where A=Mean Disease Control−Mean Normal • B=Mean Treated−Mean Normal Results

[2] = tested on: semi-established type II collagen arthritis; assay: Histopathology of fore paws, hind paws and knees in mouse type II collagen arthritis; conditions: vs vehicle controls; for Paw histopathology, reduction of summed scores: 4 paws; for Six-joint mean histopathology, reduction of summed scores: four paws and two knees
Method: Mice were terminated on day 34. […] Evaluation of serum anti-type II collagen antibody levels were also performed (groups 1-3, 6 and 8 only). All animals survived to study termination. • 8. On days 21-35, onset of arthritis occurred. Mice were weighed on arthritis days 18, 20, 22, 24, 26, 28, 30, 32, and prior to tissue collection on day 34 (final day). • 9. At necropsy, animals from all groups were bled via cardiac puncture for serum and terminated via cervical dislocation. Fore paws, hind paws and knees were removed and placed in 10% NBF. Whole blood was allowed to clot at room temperature for approximately 2 hours before being spun at 13,000 rpm for 8 minutes. • 10. Processing of Joints: Following 1-2 days in fixative and then 4-5 days in decalcifier, the joints were processed, embedded, sectioned and stained with toluidine blue and H&E (2 slides per animal). Only fore and hind paws and knees were processed initially (6 joints/mouse). • 11. Morphologic Pathology Methods: […] Hind paws, fore paws, and knees were embedded and sectioned in the frontal plane. Six joints from each animal were processed for histopathology elevation. • 12. Tissue Processing and Evaluation: • a. place joints in decalcifier, • b. trim joints, wash, process tissues, • c. embed joints, • d. section tissues, stain tissues, • e. histopathologic evaluation, and • f. data processing, QC, prepare graphs and report. Histopathologic Scoring Methods for Mouse Joints with Type II Collagen Arthritis When scoring paws or ankles from mice with lesions of type II collagen arthritis, severity of changes as well as number of individual joints affected must be considered. When only 1-3 joints of the paws or ankles out of a possibility of numerous metacarpal/metatarsal/digit or tarsal/tibiotarsal joints were affected, an arbitrary assignment of a maximum score of 1, 2 or 3 for parameters below (Tables 3-6) was given depending on severity of changes. If more than 3 joints were involved, the criteria below (Tables 3-6) were applied to the most severely affected/majority of joints. [table] [table] [table] [table] For each animal, the inflammation, pannus, cartilage damage and bone damage scores was determined for each of the 6 joints submitted. A sum total (all 6 joints) animal score and a six joint mean animal score was determined as well as sums and means for each of the individual parameters. Data were also expressed as means for paws (4 joints) or knees (2 joints). Parameters for the various groups are then compared to disease control animals. Clinical data for paw scores (means for animal) were analyzed by determining the area under the dosing curve (AUC) for study days 18-34. For calculation of AUC, the daily mean scores for each mouse were entered into Microsoft Excel and the area between the treatment days after the onset of disease to the final day was computed. Means for each group were determined and the percent inhibition from arthritis controls was calculated by comparing values for treated and normal animals.

[3] = tested on: serum anti-type II collagen antibody; assay: Serum anti-type II collagen antibody levels in mouse type II collagen arthritis; conditions: vs vehicle controls
Method: Mice were terminated on day 34. […] Evaluation of serum anti-type II collagen antibody levels were also performed (groups 1-3, 6 and 8 only). […] At necropsy, animals from all groups were bled via cardiac puncture for serum and terminated via cervical dislocation. […] Whole blood was allowed to clot at room temperature for approximately 2 hours before being spun at 13,000 rpm for 8 minutes. • 10. […] Histopathologic Scoring Methods for Mouse Joints with Type II Collagen Arthritis Serum analysis for anti-TTC levels was performed on mice from groups 1-3, 6, and 8 only.

CCN(C(=O)c1c(O)c2c(Cl)cccc2n(C)c1=O)c1ccccc1 [Laquinimod]
Disease incidence ([1]; 0.2 mg/kg Laquinimod po QD, by study day 28): 100% | Daily clinical arthritis scores prior to disease occurrence in the vehicle control group ([1]; 0.2 mg/kg Laquinimod po QD, d23): significantly elevated | Reduction of clinical arthritis scores expressed as area under the curve (AUC) ([1]; 0.2 mg/kg Laquinimod po QD): 32% | Daily clinical arthritis scores ([1]; 0.2 mg/kg Laquinimod po QD, significant d28-34): significantly reduced | Disease incidence ([1]; 1 mg/kg Laquinimod po QD, at study termination): 90% | Daily clinical arthritis scores prior to disease occurrence in the vehicle control group ([1]; 1 mg/kg Laquinimod po QD, d22-24): significantly elevated | Reduction of clinical arthritis scores expressed as area under the curve (AUC) ([1]; 1 mg/kg Laquinimod po QD): 52% | Daily clinical arthritis scores ([1]; 1 mg/kg Laquinimod po QD, significant d25-34): significantly reduced | Disease incidence ([1]; 5 mg/kg Laquinimod po QD): 70% | Daily clinical arthritis scores prior to disease occurrence in the vehicle control group ([1]; 5 mg/kg Laquinimod po QD, d22-23): significantly elevated | Reduction of clinical arthritis scores expressed as area under the curve (AUC) ([1]; 5 mg/kg Laquinimod po QD): 69% | Daily clinical arthritis scores ([1]; 5 mg/kg Laquinimod po QD, significant d24-34): significantly reduced | Paw histopathology, reduction of summed scores ([2]; 1 mg/kg Laquinimod po QD): 61% | Six-joint mean histopathology, reduction of summed scores ([2]; 1 mg/kg Laquinimod po QD): 60% | Reduction of knee cartilage damage ([2]; 1 mg/kg Laquinimod po QD): 62% | Reduction of knee inflammation ([2]; 1 mg/kg Laquinimod po QD): 51% | Reduction of knee pannus ([2]; 1 mg/kg Laquinimod po QD): 59% | Reduction of summed knee scores ([2]; 1 mg/kg Laquinimod po QD): 57% | Serum Anti-TTC level ([3]; 5 mg/kg Laquinimod po QD): not significantly affected

CN(Cc1cnc2nc(N)nc(N)c2n1)c1ccc(C(=O)N[C@@H](CCC(=O)O)C(=O)O)cc1 [MTX, Methotrexate]
Disease incidence ([1]; MTX 0.5 mg/kg po QD, at study termination): 90% | Reduction of clinical arthritis scores expressed as area under the curve (AUC) ([1]; MTX 0.5 mg/kg po QD): 50% | Daily clinical arthritis scores ([1]; MTX 0.5 mg/kg po QD, significant days 27-34): significantly reduced | Paw histopathology, reduction of summed scores ([2]; MTX 0.5 mg/kg po QD): 46% | Six-joint mean histopathology, reduction of summed scores ([2]; MTX 0.5 mg/kg po QD): 43% | Serum Anti-TTC level ([3]; MTX 0.5 mg/kg po QD): not significantly affected

From patent publication US8501766B2, “Treatment of rheumatoid arthritis with a combination of laquinimod and methotrexate” (Teva Pharmaceutical Industries Ltd., priority 2010, dated 2013)
